In assay [1] the test system is F442A EGFP cells, EGFP fluorescence, 16 h. Kind of assay: EGFP reporter destabilization counter-screen – F442A EGFP cells, fluorescence, counter-screen for p/CIP destabilizer project, dose response (AID 2005).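 Further: cells express EGFP alone from a CMV promoter as a counter screen for p/CIP-EGFP.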 For orientation: Counterscreens check selectivity or assay interference.
Assay in assay [2]: as above
The conditions noted are these: F442A EGFP cells, EGFP fluorescence, 16 h, stronger effect = higher value.

Activity calls are given as the source filed them.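 How the source made its calls: active means plate Z score at or below -3, or inhibition of at least 30% at 20 µM; inactive means the rest.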

On to `COc1ccc(NC(=O)/C(Cl)=C(/Cl)S(=O)Cc2ccc(Cl)cc2)cn1` (stereo unspecified), for which the IC50 in assay [1] was 49.9 µM (inactive). The inhibition in assay [2] (EGFP decrease, at 10 µM) is -168%.
For `CCOC(=O)c1c(C)[nH]c2c1-c1ccccc1C(=O)C2=O`, the half-maximal inhibitory concentration (IC50) in assay [1] is 8.64 µM. Also, in assay [2] (EGFP decrease, at 10 µM), the inhibition came to 23.3%.
Taken in the same sequence, the figures for `CCOC(=O)N=Nc1c2ccccc2c2nc3no[nH]c3nc12` were 35.5 µM and -20.6%.
In the same order, the values of `Cc1ccccc1NC1=C/C(=N\S(=O)(=O)c2cccs2)c2ccccc2C1=O` are 13 µM and 66.7%.
In the same order, the values of `Cc1oc2c(c1C(=O)NCc1cccnc1)C(=O)c1ccccc1C2=O` are 5.99 µM and 72%.
Turning to `CC1CCN(S(=O)(=O)c2ccc3c(c2)C(=NO)c2cc(S(=O)(=O)N4CCC(C)CC4)ccc2-3)CC1`, the IC50 in assay [1] was 7.46 µM. In assay [2] (EGFP decrease, at 10 µM), the inhibition was 68.9%.
In the same order, the values of `COc1ccc(CS(=O)/C(Cl)=C(/Cl)C(=O)Nc2ccc(OC)nc2)cc1` (stereo unspecified) are 48 µM (inactive) and -232%.
Taken in the same sequence, the figures for `CC(C)(C)c1cc[n+](C2=C([O-])c3ccccc3C(=O)/C2=N\S(=O)(=O)c2cccs2)cc1` were 37.9 µM and -4.5%.
Taken in the same sequence, the figures for `O=C1C(Cl)=C(NCCN2CCCCC2)C(=O)c2ccccc21` were 20.4 µM and 16.1%.
With `Cc1ccc(NC2=C/C(=N\S(=O)(=O)c3cccs3)c3ccccc3C2=O)c(C)c1`, the IC50 in assay [1] is 16 µM. Further, the inhibition in assay [2] (EGFP decrease, at 10 µM) worked out at 60%.
In the same order, the values of `Nc1ccc2c(c1)C(=O)C(=O)c1ccccc1-2` are 30.8 µM and 3.5%.
Turning to `O=C1C(Nc2ccccc2)=C/C(=N/S(=O)(=O)c2cccs2)c2ccccc21`, in assay [1], the concentration for half-maximal inhibition (IC50) is 10.4 µM. Moreover, the inhibition in assay [2] (EGFP decrease, at 10 µM) came out at 62.1%.
Taken in the same sequence, the figures for `O=C1C(Nc2ccc(O)cc2)=C/C(=N/S(=O)(=O)c2cccs2)c2ccccc21` were 5.18 µM and 66%.
`O=C(CN1CCCCC1)N/N=C/c1cccc(Cl)c1`: the inhibition in assay [2] (EGFP decrease, at 10 µM) was 13.5%; in assay [2] (at 20 µM), 17.4% (inactive).
In the case of `N#C/C(=C\c1cccnc1)C(=O)Nc1ccccc1[N+](=O)[O-]`, the inhibition in assay [2] (EGFP decrease, at 10 µM) was 27.7%; in assay [2] (at 20 µM), 2% (inactive).
In the same order, the values of `CN(C)N=C1c2cc(S(=O)(=O)N(C)C)ccc2-c2ccc(S(=O)(=O)N(C)C)cc21` are 2.3% and 6.6% (inactive).
On to `Cc1nc2cc3ccccc3cc2c(=O)[nH]1`, for which the inhibition in assay [2] (EGFP decrease, at 10 µM) is 12.2%; in assay [2] (at 20 µM), 3.3% (inactive).
In the same order, the values of `Cc1noc(C)c1COC(=O)CNC(=O)c1cccc(F)c1` are 4% and -7.3% (inactive).
In the same order, the values of `COc1ccc(-n2ncc3c(SCC(=O)N4CCN(c5ccccc5OC)CC4)ncnc32)cc1` are 17.1% and 9.4% (inactive).
In the same order, the values of `CC(C(=O)N1c2ccccc2CCc2ccccc21)n1nnc(-c2ccc(N(C)C)cc2)n1` (stereo unspecified) are 15.2% and 6.8% (inactive).
With `O=C(O)c1ccc(NC2=C/C(=N/S(=O)(=O)c3ccccc3)c3ccccc3C2=O)cc1`, the inhibition is 38.1% in assay [2] (EGFP decrease, at 10 µM) and 41.2% in assay [2] (at 20 µM).
In the case of `CCCCC(=O)NC(c1ccccc1Cl)c1ccc2cccnc2c1O` (stereo unspecified), the inhibition in assay [2] (EGFP decrease, at 10 µM) is 3.1%; in assay [2] (at 20 µM), -6.1% (inactive).
On to `CCCNC(=O)Cn1c(=O)oc2ccccc21`, for which the inhibition was -20.6% in assay [2] (EGFP decrease, at 10 µM) and 8.8% (inactive) in assay [2] (at 20 µM).
Taken in the same sequence, the figures for `CCc1cc2c(NCCC(=O)O)nc(C)nc2s1` were 20.9% and 21% (inactive).
Regarding `CCOc1ccc(CC(=O)Nc2ccc(S(=O)(=O)Nc3cc(C)on3)cc2)cc1OCC`, the inhibition is 7.6% in assay [2] (EGFP decrease, at 10 µM) and 10.1% (inactive) in assay [2] (at 20 µM).
Regarding `CN=Cc1sc2ccccc2c1O`, the inhibition was 26.9% in assay [2] (EGFP decrease, at 10 µM) and 29.7% (inactive) in assay [2] (at 20 µM).
In the same order, the values of `C[C@@H](C(=O)N1CCN(C(=O)OC(C)(C)C)CC1)n1cc(-c2cn([C@@H](C)C(=O)N3CCN(C(=O)OC(C)(C)C)CC3)nn2)nn1` are 38.2% and 25.3% (inactive).
In the same order, the values of `Cc1nc(-c2ccc(C(=O)Nc3cccc(F)c3)cc2)cs1` are 30.7% and 32.8%.

The term IC50 denotes the concentration at which inhibition is half-maximal. The inhibition is the drop in the measured response relative to a control, in per cent.

Values taken from PubChem BioAssay AID2005 (Sanford-Burnham Center for Chemical Genomics, 2009).
